Structure (SMILES): O=C1CCC(c2ccc(Cl)c(Cl)c2)c2ccccc21 (configuration not stated)
- solubility (mole fraction) (in DMF, 278.16 K): 0.0335
- solubility (mole fraction) (in DMF, 283.37 K): 0.0408
- solubility (mole fraction) (in DMF, 288.12 K): 0.0487
- solubility (mole fraction) (in DMF, 293.13 K): 0.059
- solubility (mole fraction) (in DMF, 298.17 K): 0.0717
- solubility (mole fraction) (in DMF, 303.28 K): 0.0881
- solubility (mole fraction) (in DMF, 308.28 K): 0.106
- solubility (mole fraction) (in DMF, 313.32 K): 0.129
- solubility (mole fraction) (in DMF, 318.27 K): 0.155
- solubility (mole fraction) (in THF, 278.04 K): 0.0699
- solubility (mole fraction) (in THF, 282.93 K): 0.0823
- solubility (mole fraction) (in THF, 288.33 K): 0.096
- solubility (mole fraction) (in THF, 293.28 K): 0.109
- solubility (mole fraction) (in THF, 298.24 K): 0.124
- solubility (mole fraction) (in THF, 302.94 K): 0.14
- solubility (mole fraction) (in THF, 308.34 K): 0.162
- solubility (mole fraction) (in THF, 313.52 K): 0.187
- solubility (mole fraction) (in acetone, 282.13 K): 0.0162
- solubility (mole fraction) (in acetone, 288.02 K): 0.0217
- solubility (mole fraction) (in acetone, 292.83 K): 0.0261
- solubility (mole fraction) (in acetone, 298.28 K): 0.0321
- solubility (mole fraction) (in acetone, 303.23 K): 0.0397
- solubility (mole fraction) (in acetone, 307.94 K): 0.0498
- solubility (mole fraction) (in acetone, 313.74 K): 0.0673
- solubility (mole fraction) (in acetone, 318.56 K): 0.0871
- solubility (mole fraction) (in acetone, 323.57 K): 0.114
- solubility (mole fraction) (in ethanol, 283.12 K): 0.00171
- solubility (mole fraction) (in ethanol, 288.27 K): 0.0021
- solubility (mole fraction) (in ethanol, 293.38 K): 0.00252
- solubility (mole fraction) (in ethanol, 298.04 K): 0.00303
- solubility (mole fraction) (in ethanol, 302.93 K): 0.00376
- solubility (mole fraction) (in ethanol, 308.32 K): 0.0049
- solubility (mole fraction) (in ethanol, 314.17 K): 0.00667
- solubility (mole fraction) (in ethanol, 318.74 K): 0.00852
- solubility (mole fraction) (in ethanol, 323.26 K): 0.0108
- solubility (mole fraction) (in isopropanol, 278.12 K): 0.000955
- solubility (mole fraction) (in isopropanol, 283.38 K): 0.00128
- solubility (mole fraction) (in isopropanol, 288.33 K): 0.00163
- solubility (mole fraction) (in isopropanol, 293.07 K): 0.00209
- solubility (mole fraction) (in isopropanol, 298.33 K): 0.00278
- solubility (mole fraction) (in isopropanol, 303.36 K): 0.0037
- solubility (mole fraction) (in isopropanol, 308.46 K): 0.00496
- solubility (mole fraction) (in isopropanol, 313.26 K): 0.00649
- solubility (mole fraction) (in isopropanol, 318.54 K): 0.00864
- solubility (mole fraction) (in methanol, 277.93 K): 0.00087
- solubility (mole fraction) (in methanol, 283.06 K): 0.00107
- solubility (mole fraction) (in methanol, 288.28 K): 0.00141
- solubility (mole fraction) (in methanol, 293.42 K): 0.00186
- solubility (mole fraction) (in methanol, 298.04 K): 0.00235
- solubility (mole fraction) (in methanol, 302.77 K): 0.00293
- solubility (mole fraction) (in methanol, 308.56 K): 0.00372
- solubility (mole fraction) (in methanol, 313.53 K): 0.00446
- solubility (mole fraction) (in methanol, 319.04 K): 0.00533
- solubility (mole fraction) (in toluene, 278.18 K): 0.0391
- solubility (mole fraction) (in toluene, 283.13 K): 0.0461
- solubility (mole fraction) (in toluene, 288.28 K): 0.0548
- solubility (mole fraction) (in toluene, 293.22 K): 0.0649
- solubility (mole fraction) (in toluene, 298.12 K): 0.0771
- solubility (mole fraction) (in toluene, 303.14 K): 0.0924
- solubility (mole fraction) (in toluene, 308.46 K): 0.112
- solubility (mole fraction) (in toluene, 313.43 K): 0.135
- solubility (mole fraction) (in toluene, 318.34 K): 0.161
